{
  "source": "patent US20210380545A1",
  "about": "“(S)-ENANTIOMERIC FORM OF A HETEROCYCLIC COMPOUND HAVING MOTIVATION IMPROVING AND/OR REFERENCE MEMORY ENHANCING ACTIVITY” (Red Bull GmbH, priority 2018, published 2021)",
  "key": {"[1]": {"test_system": "Adult male Sprague-Dawley rats", "details": "for chow intake vs vehicle treatment / lever pressing vs vehicle treatment: TBZ 1.0 mg/kg plus vehicle vs vehicle/vehicle", "quoted_text": "Rats were assessed using the fixed ratio 5/chow feeding choice test.\nAdult male Sprague-Dawley rats (Envigo Sprague Dawley, Indianapolis, Ind., USA; weights 275-299 g upon arrival) were pair-housed in a colony maintained at 23° C., with a 12-h light/dark cycle (lights on 07:00). Rats were food deprived to 85% of their free-feeding body weight for operant training and allowed modest growth throughout the experiment. Water was available ad libitum in the home cages.\nBehavioural sessions were conducted in operant chambers (28×23×23 cm3; Med Associates, Fairfax, Vt.) with 30 minute sessions 5 days/week. Rats were initially trained to lever press on a continuous reinforcement FR1 schedule (high-carbohydrate 45 mg pellets, Bio-Serv, Frenchtown, N.J.) and then shifted to the FR5 schedule. After 5 weeks of training on the FR5 schedule, chow was introduced. Weighed amounts of laboratory chow (Laboratory Diet, 5P00 Prolab RMH 3000, Purina Mills, St. Louis, Mo.; typically 15-20 g) were concurrently available on the floor of the chamber during the FR5/chow feeding choice task sessions. At the end of each 30 minute session, rats were immediately removed from the chambers, number of lever presses was recorded, and the amount of chow consumed was determined by weighing the remaining food (including spillage). Rats were trained on the FR5/chow feeding choice procedure for 5 weeks, after which drug testing began. On baseline and drug treatment days, rats consumed all of the operant pellets that were delivered during each session.\nThe DMSO/Tween 80/saline solution was administered as the vehicle control. TBZ was obtained from Tocris Bioscience (Ellisville, Mo.) and was dissolved in DMSO, 0.9% saline, and titrated with HCl. The DMSO/saline solution was administered as the vehicle control. The TBZ dose was 1.0 mg/kg.\nThe experiment used a within-groups design, with each rat receiving each drug treatment in a randomly varied order (one treatment per week, with none of the treatment sequences repeated across different animals).\nTotal number of lever presses and gram quantity of chow intake from the 30 minute sessions were analysed using repeated measures ANOVA. […] When there was a significant ANOVA, non-orthogonal planned comparisons were performed, using the overall error term to assess differences between each treatment and the control condition."}, "[2]": {"test_system": "Male Sprague-Dawley rats", "experiment": "Holeboard test (reference memory index, RMI)", "type": "in vivo, rat", "experimental": "Male Sprague-Dawley rats (17 to 18 weeks and 22 to 23 months old), bred and maintained in the Core Unit of Biomedical Research, Division of Laboratory Animal Science and Genetics, Medical University of Vienna were used. The animals were transferred to a separate experimental room one week before the start of the experimental procedure and kept there throughout the experiment individually in standard Makrolon cages filled with autoclaved woodchips temperature: 22±2° C.; humidity: 55±5%; 12 h artificial light/12 h dark cycle: light on at 7:00 am). The study was carried out according to the guidelines of the Ethics committee, Medical University of Vienna, and were approved by the Federal Ministry of Education, Science and Culture, Austria.\nThe holeboard (1 m×1 m) was made of black plastic and was surrounded by translucent plexiglass walls. The walls were equipped with spatial cues. Distal cues were provided by room structures outside the board. Four out of sixteen regularly arranged holes (diameter and depth 7 cm) were baited (dustless precision pellets, 45 mg, Bioserv®). The pattern of baited holes remained the same during the entire test. To avoid olfactory orientation pellets were also present in an area below the board. Prior to the experiment for three days the rats were handled for 15 min to get familiarized to the experimenter, followed by two days of habituation to the hole-board during which the animals could explore the maze for 15 min each day with access to food pellets. The weight of each rat was reduced by food restriction to reach 85% of its initial body weight before the start of the experiment. Tap water was given ad libitum. Rats were trained for three days (five trials on day one, four trials on day 2 and a retention trial at day 3). Every trial lasted for 120 s or until all four pellets were found. The apparatus was cleaned with 0.1% Incidin® (Ecolab, Dusseldorf, Germany) between trials to remove odor cues. The interval between two successive trials for an individual was 20 min. A camera mounted on the room ceiling recorded the performance of the rats in the maze. […] To compare rats with similar levels of motivation, rats with less than 40-hole visits in total over the ten trials were excluded from the analysis. Reference memory errors were noted as the number of visits to the unbaited holes. The Reference Memory Index (RMI) was calculated using the formula (first+revisits of baited holes)/total visits of all holes. All behavioral training/testing was performed during the light phase of the light-dark cycle."}, "[3]": {"target": "T1, human dopamine transporter (DAT) (Homo sapiens, UniProt Q01959)", "T1 construct": "expressed in transfected cells", "T1 sequence (Q01959 whole entry)": "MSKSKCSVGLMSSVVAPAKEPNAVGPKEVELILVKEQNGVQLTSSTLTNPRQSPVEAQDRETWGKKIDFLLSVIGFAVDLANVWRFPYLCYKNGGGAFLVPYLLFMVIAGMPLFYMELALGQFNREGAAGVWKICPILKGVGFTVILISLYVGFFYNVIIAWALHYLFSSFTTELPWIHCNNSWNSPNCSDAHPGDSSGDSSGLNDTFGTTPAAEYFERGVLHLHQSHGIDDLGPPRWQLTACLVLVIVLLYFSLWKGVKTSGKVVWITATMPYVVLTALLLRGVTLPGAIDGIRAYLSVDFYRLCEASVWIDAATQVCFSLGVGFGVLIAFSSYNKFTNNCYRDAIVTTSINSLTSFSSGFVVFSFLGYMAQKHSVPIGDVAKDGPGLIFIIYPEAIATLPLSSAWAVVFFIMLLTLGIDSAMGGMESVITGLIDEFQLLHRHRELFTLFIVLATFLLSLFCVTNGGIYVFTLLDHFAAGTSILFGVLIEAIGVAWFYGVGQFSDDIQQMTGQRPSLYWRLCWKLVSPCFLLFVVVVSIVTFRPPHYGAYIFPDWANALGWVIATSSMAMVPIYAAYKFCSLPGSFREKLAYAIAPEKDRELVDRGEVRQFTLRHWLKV", "experiment": "Reuptake inhibition assay, [3H]-dopamine uptake in HEK-DAT cells", "type": "cell-based"}, "[4]": {"target": "T2, human nor-epinephrine transporter (NET) (Homo sapiens, UniProt P23975)", "T2 construct": "expressed in transfected cells", "T2 sequence (P23975 whole entry)": "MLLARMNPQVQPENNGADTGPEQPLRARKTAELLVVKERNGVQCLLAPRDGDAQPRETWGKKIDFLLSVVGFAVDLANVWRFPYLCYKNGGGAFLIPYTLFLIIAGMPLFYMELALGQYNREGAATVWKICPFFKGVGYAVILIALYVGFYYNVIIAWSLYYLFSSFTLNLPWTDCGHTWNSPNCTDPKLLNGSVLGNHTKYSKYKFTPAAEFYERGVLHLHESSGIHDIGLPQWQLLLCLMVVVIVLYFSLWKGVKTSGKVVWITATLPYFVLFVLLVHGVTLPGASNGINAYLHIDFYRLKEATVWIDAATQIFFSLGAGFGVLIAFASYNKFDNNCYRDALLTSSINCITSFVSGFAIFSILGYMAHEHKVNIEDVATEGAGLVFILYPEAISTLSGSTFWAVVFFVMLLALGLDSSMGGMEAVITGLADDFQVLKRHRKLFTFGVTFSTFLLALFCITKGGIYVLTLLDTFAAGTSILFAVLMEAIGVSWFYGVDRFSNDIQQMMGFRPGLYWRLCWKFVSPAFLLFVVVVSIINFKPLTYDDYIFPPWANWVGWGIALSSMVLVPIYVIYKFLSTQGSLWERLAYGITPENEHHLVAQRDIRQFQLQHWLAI", "experiment": "Reuptake inhibition assay, [3H]MPP+ uptake in HEK-NET cells", "type": "cell-based", "details": "HEK293 cells expressing human NET, 0.05 μM [3H]MPP+, 3 min"}, "[5]": {"target": "T3, human serotonin transporter (SERT) (Homo sapiens, UniProt P31645)", "T3 construct": "expressed in transfected cells", "T3 sequence (P31645 whole entry)": "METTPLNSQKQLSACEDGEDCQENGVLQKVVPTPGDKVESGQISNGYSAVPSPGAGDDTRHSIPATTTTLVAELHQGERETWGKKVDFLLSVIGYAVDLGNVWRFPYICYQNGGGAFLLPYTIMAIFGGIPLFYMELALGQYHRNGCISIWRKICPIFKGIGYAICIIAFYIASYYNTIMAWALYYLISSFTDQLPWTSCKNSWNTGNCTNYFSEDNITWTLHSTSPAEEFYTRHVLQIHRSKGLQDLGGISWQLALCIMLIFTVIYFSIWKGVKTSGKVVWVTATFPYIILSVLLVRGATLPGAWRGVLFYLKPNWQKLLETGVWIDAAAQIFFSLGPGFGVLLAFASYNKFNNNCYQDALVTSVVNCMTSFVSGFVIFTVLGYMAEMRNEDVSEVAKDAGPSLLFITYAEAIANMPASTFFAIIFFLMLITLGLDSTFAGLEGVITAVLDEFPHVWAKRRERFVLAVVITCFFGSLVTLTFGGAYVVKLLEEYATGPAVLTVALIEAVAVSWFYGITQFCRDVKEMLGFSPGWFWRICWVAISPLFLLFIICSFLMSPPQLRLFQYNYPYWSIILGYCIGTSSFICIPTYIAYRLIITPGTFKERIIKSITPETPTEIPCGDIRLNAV", "experiment": "Reuptake inhibition assay, [3H]5-HT uptake in HEK-SERT cells", "type": "cell-based", "details": "HEK293 cells expressing human SERT, 0.4 μM [3H]5-HT, 1 min"}, "[6]": {"details": "p<0.001, listed as Tetrabenazine"}, "[7]": {"details": "HEK293 cells expressing human DAT, 0.2 μM [3H]-dopamine, 1 min, read-out: IC50, inhibition of DAT-mediated dopamine reuptake"}},
  "note": "Where two headings read alike, the source gives them in different places.",
  "data": [
    {"smiles": "COc1cc2c(cc1OC)C1CC(=O)C(CC(C)C)CN1CC2", "note": "(stereo not drawn) [TBZ, 9,10-dimethoxy-3-(2-methylpropyl)-1,3,4,6,7, 11b-hexahydrobenzo[a]quinolizin-2-one]", "values": [
      {"measurement": "chow intake vs vehicle treatment", "setting": "[1]; p<0.001", "result": "significantly increased chow intake"},
      {"measurement": "lever pressing vs vehicle treatment", "setting": "[1]; p<0.001", "result": "significantly decreased lever pressing"},
      {"measurement": "chow intake vs vehicle treatment", "setting": "[1]; [6]", "result": "increased chow intake"},
      {"measurement": "lever pressing vs vehicle treatment", "setting": "[1]; [6]", "result": "decreased lever pressing"}
    ]},
    {"smiles": "[O-][S@@+](Cc1cncs1)C(c1ccccc1)c1ccccc1", "note": "[Compound C1, (S)-5((diphenylmethanesulfinyl)-methyl-1,3-thiazole)]", "values": [
      {"measurement": "effect on TBZ-induced increase of chow intake", "setting": "[1]; 24.0 mg/kg with TBZ 1.0 mg/kg vs TBZ/vehicle, 30 minute session, p<0.001", "result": "significantly attenuated the effects of TBZ"},
      {"measurement": "effect on TBZ-induced decrease of lever pressing", "setting": "[1]; 24.0 mg/kg with TBZ 1.0 mg/kg vs TBZ/vehicle, 30 minute session, p<0.01", "result": "significantly attenuated the effects of TBZ"},
      {"measurement": "reversal of the effort-related effects of tetrabenazine", "setting": "[1]; highest dose (24.0 mg/kg) co-administered with TBZ 1.0 mg/kg", "result": "partially but significantly reversed the effects of tetrabenazine"},
      {"measurement": "Reference Memory Index (RMI) vs controls, entire training", "setting": "[2]; old male rats (22 to 23 months), 10 mg/kg body weight, Tukey post hoc p=0.021", "result": "significantly enhanced RMI"},
      {"measurement": "Reference Memory Index (RMI) vs controls, entire training", "setting": "[2]; old male rats, 1 mg, p=0.357", "result": "performed similar as compared to controls"},
      {"measurement": "Reference Memory Index (RMI) vs controls, entire training", "setting": "[2]; old male rats, 5 mg, p=0.171", "result": "performed similar as compared to controls"},
      {"measurement": "RMI vs vehicle, day 1", "setting": "[2]; old male rats, 10 mg, day 1, p=0.032", "result": "significantly enhanced RMI"},
      {"measurement": "RMI vs vehicle, day 2", "setting": "[2]; old male rats, 10 mg, day 2, p<0.001", "result": "significant treatment effect"},
      {"measurement": "RMI vs controls, retention trial at day 3", "setting": "[2]; old male rats, 10 mg, day 3, p=0.003", "result": "higher RMI"},
      {"measurement": "IC50", "setting": "[3]", "result": 2.8, "unit": "µM"},
      {"measurement": "inhibition of NET", "setting": "[4]", "result": "negligible"},
      {"measurement": "inhibition of SERT", "setting": "[5]", "result": "negligible"}
    ]},
    {"smiles": "[O-][S@+](Cc1cncs1)C(c1ccccc1)c1ccccc1", "note": "[Compound C2, (R)-5-(diphenylmethanesulfinylmethyl)-1,3-thiazole]", "values": [
      {"measurement": "IC50", "setting": "[3]; [7]", "result": 22.3, "unit": "µM"}
    ]},
    {"smiles": "[O-][S+](Cc1cncs1)C(c1ccccc1)c1ccccc1", "note": "(racemic) [Compound C3, 5-(diphenylmethanesulfinylmethyl)-1,3-thiazole]", "values": [
      {"measurement": "IC50", "setting": "[3]; [7]", "result": 4.6, "unit": "µM"}
    ]}
  ]
}
